Where a name gives a salt, the structure may show the parent alone.
How the values were obtained:
Plasmodium falciparum [1] = assay: NOVARTIS: Inhibition of Plasmodium falciparum 3D7 (drug-susceptible) proliferation in erythrocyte-based infection assay; format: functional, organism-based
Plasmodium falciparum [2] = assay: NOVARTIS: Inhibition of Plasmodium falciparum W2 (drug-resistant) proliferation in erythrocyte-based infection assay; format: functional, organism-based; conditions: read-out: EC50
[3] = NOVARTIS: Cytotoxicity against human hepatocellular carcinoma cell line (Huh7); format: toxicity, cell-based, Huh-7; conditions: Huh7 cells (hepatocellular carcinoma cell line)

| Compound | EC50 (Plasmodium falciparum [1]; Plasmodium falciparum, 3D7) [nM] | EC50 (Plasmodium falciparum [2]; Plasmodium falciparum, W2) [nM] | CC50 [3] [nM] | EC50 (Plasmodium falciparum [1]) [nM] | EC50 (Plasmodium falciparum [2]) [nM] |
| --- | --- | --- | --- | --- | --- |
| CC1=C(CC(=O)c2cccc([N+](=O)[O-])c2)C(=O)c2ccccc2C1=O | 2840 | 1720 | 4690 |  |  |
| Brc1ccc(C=Nc2ccc(-c3nc4cc(-c5ccc6[nH]c(-c7ccc(N=Cc8ccc(Br)cc8)cc7)nc6c5)ccc4[nH]3)cc2)cc1 | 587 | 647 | > 10000 |  |  |
| CC1CCCCN1CC(=O)N1CCN(C(=O)CN2CCCCC2C)CC1.CC=O (stereo not given) | > 1250 | 60.3 | > 4250 |  |  |
| CCC(CO)NCC(O)Cn1c2ccc(Br)cc2c2cc(Br)ccc21 (stereo not given) | 526 | 126 | 11200 |  |  |
| C=C(C)CSc1nc(N)c2c3c(sc2n1)CN(CCC)CC3 | 799 | 383 | > 66300 |  |  |
| Cc1ccc(CN2C[C@H](n3cnnn3)C[C@H]2C(=O)NCCc2cccc(Cl)c2)c(C)c1 | 1320 | 1120 | > 10400 |  |  |
| Cc1ccc(NC(=O)c2ccc(NCCCN3CC(C)CC(C)C3)c([N+](=O)[O-])c2)cc1F (stereo not given) | 219 | 736 | > 53600 |  |  |
| CCOC(=O)c1cc(-c2ccc(OC)cc2)n(CCC(=O)Nc2cccc(C(C)=O)c2)c1C | 21.8 | 8.49 | > 100000 |  |  |
| O=C(Nc1ccc(-c2nc3ccccc3[nH]2)cc1)c1cccc(C(=O)Nc2ccc(-c3nc4ccccc4[nH]3)cc2)n1 | 121 | 126 | 31700 |  |  |
| CCNc1nc(NC(C)C)nc(NC(N)NOC)n1 (stereo not given) | > 1150 | > 1400 | > 10000 |  |  |
| O=C(C=Cc1ccccc1Cl)Nc1ccc(Oc2ccc3ccccc3c2Cl)c(Cl)c1 | 1030 | > 12500 | > 100000 |  |  |
| O=C(c1cc2cc(Br)ccc2o1)N1CCc2c([nH]c3ccccc23)C1c1ccc(Cl)cc1 (stereo not given) | 887 | 226 | > 100000 |  |  |
| Cc1ccn2c(NC(C)(C)CC(C)(C)C)c(-c3ccccc3OC(=O)c3ccccc3F)nc2c1 | 951 | 6.35 | > 10000 |  |  |
| CCN(CCN1CCN(S(=O)(=O)c2cc(Cl)ccc2Cl)CC1)CC1=CCC2CC1C2(C)C (stereo not given) | 1790 | 289 | > 10000 |  |  |
| O=C(NCc1ccccc1)NC1CC2CCCC(C1)N2Cc1ccccc1 (stereo not given) | 879 | 423 | > 10000 |  |  |
| NNc1ncnc2[nH]cnc12 | 303 | 666 | > 10000 |  |  |
| COc1cccc(OC)c1C(=O)NCCCCNc1ccnc2cc(Cl)ccc12 | 449 | 198 | > 12200 |  |  |
| CC(=NNC(=O)c1ccc(C)cc1)c1ccccn1 | 350 | 209 | > 100000 |  |  |
| CCn1ncc(CN2CCC(C(=O)Nc3ccccc3-c3cccc(OC)c3)CC2)c1C | > 12500 | 1160 | 47600 |  |  |
| O=C(COc1ccccc1)NC(c1ccco1)c1cc(Cl)c2cccnc2c1O (stereo not given) | 1490 | 589 | > 100000 |  |  |
| CC(C)CNc1nc(NCCCN2CCCCC2C)ncc1C(=O)NCCc1ccccc1 (stereo not given) | 383 | 729 | > 10000 |  |  |
| O=C(Nc1cccnc1)c1cc(-c2cccnc2)nc2ccc(Cl)cc12 | 3960 | > 12500 | > 100000 |  |  |
| CCC1=NN2C(=N)/C(=C/c3cn(CCOc4ccccc4C(C)CC)c4ccccc34)C(=O)N=C2S1 (stereo not given) | > 1250 | > 865 | > 10000 |  |  |
| Cc1ccn(CC(=O)N2CCOc3c(cc(-c4csc5ccccc45)cc3OCCc3ccccn3)C2)n1 | 823 | 730 | 39000 |  |  |

| Compound | EC50 (Plasmodium falciparum [1]; Plasmodium falciparum, 3D7) [nM] | EC50 (Plasmodium falciparum [2]; Plasmodium falciparum, W2) [nM] | CC50 [3] [nM] | EC50 (Plasmodium falciparum [1]) [nM] | EC50 (Plasmodium falciparum [2]) [nM] |
| --- | --- | --- | --- | --- | --- |
| Cc1ccc(C(=O)C(C)[n+]2ccc(N(C)C)cc2)cc1 (stereo not given) | 438 | 4040 | 35300 |  |  |
| COc1ccc2ccc(OC)c(C3C(C#N)=C(N)OC4=C3C(=O)CC(C)(C)C4)c2c1 (stereo not given) | 1450 | 864 | > 100000 |  |  |
| CC(NC(=O)C(=O)N1CCCCC1)C(c1cccs1)N1CCOCC1 (stereo not given) | > 1680 | 675 | > 100000 |  |  |
| N#CC(=Cc1cn(Cc2ccc(Cl)cc2Cl)c2ccccc12)c1nc2ccccc2[nH]1 | 270 | 1020 | > 100000 |  |  |
| Nc1nc(Cl)nc2ccccc12 | 516 | 737 | > 10000 |  |  |
| Cc1sc2ncnc(Nc3ccncc3)c2c1C | > 12500 | > 1450 | > 100000 |  |  |
| O=C(NCCN(CCNc1ccnc2cc(Cl)ccc12)CCNc1ccnc2cc(Cl)ccc12)C1CCC1 | 207 | 255 | > 10000 |  |  |
| CCCOc1ccc2c(c1)C(=NN=C(N)N)c1cc(OCCC)ccc1-2 | 270 | 323 | > 10000 |  |  |
| CCN(CC)C(=O)c1cn(C2CCN(Cc3ccco3)CC2)nn1 | > 1250 | 26.7 | > 10000 |  |  |
| O=C(Nc1ccc(F)c(F)c1)c1ccccc1[N+](=O)[O-] | > 903 | 1060 | > 10000 |  |  |
| COC(=O)[C@@H]1C[C@H](NC(=O)c2ccc(OC)cc2OC)CN1Cc1cccc2ccccc12 | > 1250 | > 80.9 | > 10000 |  |  |
| CCOC(=O)c1[nH]c(CSC#N)c(C(C)=O)c1C | > 1250 | > 378 | > 10000 |  |  |
| CCN(CC(=O)N1CCc2cc(OC)c(OC)cc2C1C)C(=O)Nc1ccc(Br)cc1 (stereo not given) | > 1250 | > 692 | > 10000 |  |  |
| CCOc1ccc(NC(=O)c2ccc(F)c(S(=O)(=O)NC3CCCCCC3)c2)cc1 | 1350 | 135 | 54800 |  |  |
| CCCNC(=O)N1CCC2(CC1)CC(=O)c1cc(C)ccc1O2 | 870 | 448 | > 100000 |  |  |
| N#CC(=Cc1ccc(Sc2ccccc2)o1)c1nc2ccccc2[nH]1 | 1050 | 501 | > 100000 |  |  |
| CCNc1nc(OC)nc(Oc2ccc(=O)n(-c3ccccc3)n2)n1 | 548 | 584 | > 100000 |  |  |
| O=[N+]([O-])c1ccc(-c2ccc(C=NNc3ccccn3)o2)cc1 | 2430 | 2300 | > 100000 |  |  |
| O=C(Nc1ccc(-n2cccn2)cc1)C1CCN(Cc2nc3c(s2)CCCC3)CC1 | 1350 | 894 | > 100000 |  |  |
| COc1ccc(C(=O)N2C(C(=O)Nc3ccc(C)cc3)CSC2c2ccc(C(C)(C)C)cc2)cc1 (stereo not given) | 1040 | 1170 | > 2970 |  |  |
| c1ccc(-c2nc3cc4ccccc4cc3nc2-c2ccsc2)cc1 | 3440 | 2830 | > 100000 |  |  |
| O=[N+]([O-])c1ccc(-c2csc(CO)n2)cc1 | > 12500 | 4270 | > 100000 |  |  |
| Cc1ccccc1Cn1c(=N)n(CC(O)c2ccc(Cl)c(Cl)c2)c2ccccc21 (stereo not given) | 135 | 38.4 | 13300 |  |  |
| Cc1ccc(-c2c3c(nc4sc(C(=O)Nc5ccc(Cl)cc5)c(N)c24)CCCC3)o1 | 8310 | 6780 | > 100000 |  |  |

| Compound | EC50 (Plasmodium falciparum [1]; Plasmodium falciparum, 3D7) [nM] | EC50 (Plasmodium falciparum [2]; Plasmodium falciparum, W2) [nM] | CC50 [3] [nM] | EC50 (Plasmodium falciparum [1]) [nM] | EC50 (Plasmodium falciparum [2]) [nM] |
| --- | --- | --- | --- | --- | --- |
| O=C(Nc1ccccc1O)c1ccc(Cl)cc1 | 3260 | 1090 | 36200 |  |  |
| COc1cc2nc(NCCN3CCOCC3)n3nc(-c4ccccc4)nc3c2cc1OC | 114 | 134 | > 10000 |  |  |
| CC[n+]1cc(C)ccc1C=Cc1ccc(N(C)C)cc1 |  |  | 15200 | 195 | 232 |
| CSc1ccc(Cl)c(Cl)c1 | 83.9 | 398 | 2350 |  |  |
| CCSc1ccc2ccccc2[n+]1CC | 179 | 227 | > 100000 |  |  |
| COc1cncc(-c2cncc(-c3ccc(Oc4ccccc4)cc3)n2)c1 | 43.9 | 79.8 | > 100000 |  |  |
| CCn1ccnc1CC1COc2ccccc2O1 (stereo not given) [IMILOXAN HYDROCHLORIDE] | > 1040 | 443 | > 10000 |  |  |
| CCOC(=O)C(=O)N1c2ccc(OCC)cc2-c2c(ssc2=S)C1(C)C | 252 | 25.2 | > 100000 |  |  |
| COCCNCCN1CCN(c2ccc(C)cc2)C[C@@H]1c1ccccc1 | 436 | 548 | 11200 |  |  |
| CN(C=Cc1sc2ccc3ccccc3c2[n+]1C)c1ccccc1 |  |  | 64300 | 239 | 153 |
| c1ccc2c(c1)c1c(c3ccccc32)CN2CCCC2C1 (stereo not given) | 120 | 221 | > 10000 |  |  |
| Cc1cccn2c(NCc3ccccc3)c(-c3ccccc3OC(=O)C(C)Cl)nc12 (stereo not given) | 764 | 925 | > 100000 |  |  |
| C[n+]1c(C=Cc2ccc(F)cc2)ccc2ccccc21 | 8110 | 11100 | > 100000 |  |  |
| CC(C)CNc1nc(NCCCN2CCCCC2C)ncc1C(=O)NCc1ccccc1 (stereo not given) | 236 | 859 | > 10000 |  |  |
| CCc1c(C)c(C#N)c2nc3ccccc3n2c1Nc1ccc(C)c(Cl)c1 | 1090 | 233 | > 100000 |  |  |
| C=CCNC(=O)c1cc(OCc2ccccc2)c(OCc2ccccc2)c(OCc2ccccc2)c1 | 10800 | 9180 | > 100000 |  |  |
| C=CC1CN2CCC1CC2[C@H](c1ccnc2ccccc12)S(=O)(=O)O (stereo not given in full) | 152 | 97.1 | > 10000 |  |  |
| C=CCn1c2cc(C)sc2c2cnn(CC(=O)N3CC(C)CC(C)C3)c(=O)c21 (stereo not given) | > 1250 | > 857 | > 10000 |  |  |
| CCCCCN(C(=O)c1ccc2ccccc2c1)C(CC)c1nc2ccccc2c(=O)n1-c1ccccc1OC (stereo not given) | 752 | > 1230 | > 10000 |  |  |
| COc1cccc(-c2ccc(O)c(CNC3CCCCCCC3)c2)n1 | 71.9 | 20.3 | 23100 |  |  |
| Cc1ccn2c(NC(C)(C)CC(C)(C)C)c(-c3ccccc3OC(=O)c3ccc(F)cc3)nc2c1 | 897 | 8.7 | > 10000 |  |  |
| Cc1cc(C)c(CSC(=N)N)c(C)c1CSC(=N)N | 1120 | > 1140 | > 10000 |  |  |
